The text below walks through data of PMC2731040 (BMC Clinical Pharmacology, 2009).

Entries after “also recorded” stand apart in the source; their conditions may differ.

The nature of data set [1]: Plasma pharmacokinetics of cocaine and benzoylecgonine after IV cocaine-d5 infusion. Particulars: for Cmax: cocaine-d5 IV 0.5 mg/kg over 10 min then 2 mg/kg over 4 h; for Cmax / (t1/2)z / AUC (0-∞) / AUC(0-t) / AUCext / Tmax / λz: mean ± SD. Here is the method: In this open-label, unblinded study, a 0.5 mg/kg intravenous loading dose of cocaine-d5 HCl over 10 minutes was followed by a slow 4 hour constant rate cocaine-d5 infusion of 2.0 mg/kg(~175 mg for a 70 kg person). […] When this method of cocaine administration is utilized, a larger dose can be given over a longer period of time and approximates frequently reported patterns of cocaine use. This method also allowed for close monitoring and termination of the infusion if untoward psychiatric or cardiovascular effects occurred.
For both cocaine infusions (sessions 1 and 2), plasma samples for cocaine and metabolites (~6 ml) were obtained 5 minutes before and 10 minutes, 0.5, 1, 1.5, 2, 4, 4.25, 4.5, 5, 6, 8, 12, 21, 27, 33, and 45 hours after each cocaine infusion.
Plasma concentrations of cocaine and benzoylecgonine were measured in our laboratory using a method we developed. The method allows for simultaneous determination of cocaine, benzoylecgonine, and deuterium-labeled analogs [cocaine-d5 and benzoylecgonine-d5 (BE-d5)] by using combined gas chromatography-mass spectrometry (GC-MS). Differently labeled stable isotope analogs were used as internal standards. The calibration curves were from 5 to 2,000 ng/mL for cocaine-d5 and 10 to 2,000 ng/mL for BE-d5. Lower limits of quantitation (LLOQ) were 5 ng/ml (cocaine-d5) and 10 ng/ml (BE-d5) in plasma. Qualitative urine benzoylecgonine was measured by Northwest Toxicology Laboratory, Salt Lake City, Utah, using the Roche Diagnostics Online® immunoassay.
The plasma concentration-time profiles for cocaine and benzoylecgonine (BE) were analyzed by non-compartmental methods, utilizing the pharmacokinetic data analysis program WinNonlin Pro, version 3.0 [31].
The area under the plasma concentration-time curve was calculated using the linear trapezoidal rule up to the maximum plasma concentration, and thereafter using the logarithmic trapezoidal rule to the last measurable plasma concentration. The remaining area was extrapolated to infinity by dividing the last appropriate plasma concentration by the terminal exponential rate constant.
Maximum plasma concentration (Cmax) and time of maximum plasma concentration (Tmax) were determined by visual inspection of data. "Terminal" exponential half-life [(t1/2)z] was calculated from log-linear regression of "terminal" exponential phase data points. Cocaine clearance (CL) and terminal exponential volume of distribution (Vz) were calculated by conventional equations: CL = [Dose/Area under the curve (AUC)0-∞] and Vz = CL/λz, respectively, where λz ("terminal" exponential rate constant) = ln2/(t1/2)z. […] Amount of BE in urine samples was calculated by multiplying concentration by volume.

Data set [2] is described as follows: Selegiline and metabolites excreted in 24 hour urine collections. The format is in vivo, human. Also on record: unit not given here. The settings on record: Mean ± SD, N = 12. Here is the method: (§1) When subjects were in the GCRC, all urine was collected and volumes recorded. Following each cocaine infusion, urine was collected in fractions from 0 to 24, 24 to 48, and 48 to 72 hours (timed from the start of the infusion). Samples were then frozen at -70°C until analyzed. […] A qualitative screen for drugs of abuse was obtained every other day for the entire study period.
(§2) All analyses employed a one-factor repeated-measures analysis of variance (ANOVA), with all parameters analyzed as their logarithmic (natural) transforms. If a day effect was found between days 9, 11, 12, and 13, a Tukey multiple comparison procedure was employed posthoc to compare the days in pairs. A test for linear trend was included. All probability estimates presented are based on the Type III sums of squares.

Data set [3] can be described thus: Trough plasma concentrations of selegiline and metabolites. It counts as in vivo, human. The settings on record: days 9, 11, 12, and 13 of STS; p for linear trend <0.001 (l-methamphetamine) and <0.01 (l-amphetamine).
Excerpt: as §2

Data set [4] concerns nondependent cocaine-experienced subjects. Put plainly: Adverse events and cardiovascular safety monitoring. It counts as in vivo, human. Particulars: STS 6 mg/24 hours. Here is the method: (§3) Heart rate, blood pressure, respiration rate, skin and core temperature were recorded at specific times during the study. During infusions, measures were obtained pre-dose and at 0.17, 0.5, 0.75, 1, 1.5, 2, 2.5, 3, 3.5, 4, 4.25, 4.5, 5, 6, 8, 12, 18, 24, 36, 48, and 72 hours after dosing. The electrocardiogram was monitored continuously during the infusion and for 4 hours after the termination of the intravenous cocaine infusion. EKG tracings were recorded at each data collection point.

Data set [5] has the same test system. Put plainly: Subjective measures (verbal ratings, visual analog scales, POMS) during cocaine challenge sessions. The format is in vivo, human. The source says:
Verbal ratings of global intoxication and craving (on a scale of 0 to 100) were obtained at the same time points as the physiologic measures, with 0 representing no drug effect and 100 representing the highest level of intoxication or craving.
Visual analog scales were used to rate the degree of drug liking by moving an arrow along a 10 cm line marked at opposite ends as 0 (not at all) and 100 (extreme) using a hand-held computer (Tandy 102). Items rated on the visual analog scale included "good drug effect" and "bad drug effect," and were obtained prior to cocaine infusion and at 0.17, 0.5, 0.75, 1, 1.5, 2, 2.5, 3, 3.5, 4, 4.25, 4.5, 5, 6, and 8 hours after dosing.
The Profile of Mood States (POMS) assessed mood changes in Anger, Confusion, Fatigue, Tension, and Vigor on a scale from 0 to 4, where 0 indicated "no effect" and 4 indicates "extremely strong". Ratings were obtained prior to cocaine infusion and at 1, 3, and 6 hours after dosing.
(§4) The time courses of physiologic and subjective data were analyzed by repeated measures analysis of variance (ANOVA). Treatment conditions (Sessions 1 and 2) and observation times (hours post-dose) were considered within-subject factors. Change scores (post-dose minus pre-dose values) were used in most analyses. Raw score were used where indicated. After a significant F test, pairwise comparisons of treatment conditions were performed using the least squares means analysis. Peak effects within a session were determined for each subject and each variable and analyzed using a one-factor repeated measures ANOVA. Effects were considered statistically significant at p = 0.05. Data were adjusted for sphericity using the Huynh-Feldt adjustment factor. Huynh-Feldt-corrected significance values are reported.

The subject of data set [6] is noradrenergic tone. Put plainly: Urinary MHPG-S excretion (surrogate for noradrenergic tone, MAO-A metabolite). It counts as in vivo, human.
Excerpt: The interactions between MAO-A inhibitors and cocaine administered are largely unexplored. […] Therefore, measurement of dopaminergic and noradrenergic tone may be important in predicting toxic events. We measured dopaminergic tone with the surrogate marker of plasma HVA, the major brain metabolite of dopamine, and serum levels of prolactin, a hormone whose secretion is inhibited by dopamine. The surrogate for noradrenergic tone was urine concentrations of MHPG-S. In order to assess the degree of MAO-A and MAO-B inhibition, we assayed concentrations of a substrate of MAO-B, phenylethylamine (PEA). PEA would be expected to increase with MAO-B inhibition, and concentrations of MHPG-S, which is a metabolite of norepinephrine produced by MAO-A primarily in the brain [20], would be expected to decrease.
as §1
Concentrations of MHPG-S in urine were determined using LC-MS/MS [29]. […] As urinary creatinine excretion is directly related to glomerular filtration and renal blood flow, and urinary creatinine excretion is relatively constant (~1 gm/day), it can be used to estimate concentrations of a substance during a 24 hour urine collection period. Using ratios of the concentrations of MHPG-S to creatinine obtained from assays of these spot urine samples, MGPG-S concentrations during the outpatient period (when subjects would be unlikely to provide accurate 24 hour urine collections) were compared to those from urine samples on inpatient days.

Data set [7] concerns nondependent cocaine-experienced subjects. Put plainly: Physiologic measures during cocaine challenge sessions. It counts as in vivo, human. The settings on record: session 2 vs session 1; peak effects and effects across time. How it is done: Heart rate, systolic and diastolic blood pressure were measured using a cardiovascular monitor (Dinamap by Critikon, Vital Signs Monitor 1846 SX). Rate pressure product was calculated as the product of systolic blood pressure and heart rate. Respiration rate was measured by counting the number of inhalations per minute. These vital signs were determined with the patient in a supine position for at least 10 minutes.
as §3, §4

[8] abbreviates: Pre Selegiline (session 1), plasma.
Where [9] appears, read: With Selegiline (session 2), plasma.
Setting [10] is: 0–24 hours after cocaine (day 11), STS 6 mg/24 hours.
The mark [11] stands for this setting: 24–48 hours after cocaine (day 12), STS 6 mg/24 hours.
Setting [12] is: 48–72 hours after cocaine (day 13), no patch applied at 9 AM on day 14.

Consider `CN1[C@H]2CC[C@@H]1[C@@H](C(=O)O)[C@@H](OC(=O)c1ccccc1)C2` [Benzoyl-ecgonine, benzoylecgonine], for which, in data set [1] (setting [8]), the Cmax (commonly the highest concentration seen after dosing) is 1045 ± 180 ng/mL; the “(t1/2)z” value was determined as 8.63 ± 5.36 h; the “AUC (0-∞)” value came to 13600 ± 3820 ng·h/mL; the AUC(0-t) (commonly exposure summed from dosing to a finite time, without extrapolation to infinity) is 13000 ± 3030 ng·h/mL. For the same compound, in data set [1] (setting [8]), the AUCext was found to be 3.45 ± 6.45%; the Tmax (in general, the time at which the peak concentration occurs) was 4.79 ± 0.50 h; the λz came to 0.0928 ± 0.023 h⁻¹. Besides, in data set [1] (setting [9]), the “(t1/2)z” value came out at 7.52 ± 1.82 h, the “AUC (0-∞)” value turned out to be 13200 ± 4180 ng·h/mL, the “AUC(0-t)” value came out at 12900 ± 3760 ng·h/mL and the AUCext came to 2.21 ± 2.24%. In data set [1] (setting [9]), the Tmax turned out to be 5.04 ± 0.65 h and the λz is 0.0971 ± 0.024 h⁻¹. The compound also gave a Cmax in data set [1] (With Selegiline (session 2, after one week STS 6 mg/24 hours), plasma) of 957 ± 184 ng/mL. Further, in data set [1] (plasma, after IV cocaine-d5 infusion), the “BE AUC relative to that of cocaine” value is listed as “approximately 5.9 times”.
Turning to `CN[C@H](C)Cc1ccccc1` [l-Methamphetamine, l-methamphetamine], the “Excreted in the 24 Hour Urine” value in data set [2] (setting [10]) was determined as 6.26 ± 2.28; in data set [2] (setting [11]), 8.51 ± 5.69; in data set [2] (setting [12]) it was 4.83 ± 1.55. Moreover, the “Trough plasma concentrations over time” value in data set [3] was “increased over time”.
On to `C#CCN(C)[C@H](C)Cc1ccccc1` [Selegiline, selegiline], for which the Adverse events result in data set [4] (cocaine-d5 IV 2.5 mg/kg over 4 hours, 2.5 mg/kg) was “One subject reported erectile dysfunction; also recorded: One subject experienced anxiety and one reported insomnia”. Besides, the “Cardiovascular adverse effects (orthostatic vital signs and cardiovascular monitoring)” value in data set [4] (selegiline maintenance phase) is “no adverse cardiovascular effects”. Further, the “Verbal ratings of craving, second session vs first” value in data set [5] (between 1.5 and 4.5 hours after cocaine, condition × time significant) is given as “lower”. The “POMS anger, tension and total score scales across time, second session vs first” value in data set [5] (second cocaine session (after selegiline)) is recorded as “significantly different (lower)”. Besides, in data set [1] (after removal of the two outliers, STS 6 mg/24 hours for one week), the “Effect of selegiline on cocaine or BE plasma pharmacokinetics” value is listed as “No effect”. For the same compound, the “Total Amount of MHPG-S Excreted in the 24 Hour Urine Collection” value in data set [6] (Day 4–5, 0–24 hr Postselegiline) is 1.43 ± 0.40 mg; in data set [6] (Day 11–12 Selegiline Phase 1st Day After Cocaine) it was 1.09 ± 0.23 mg; in data set [6] (Day 12–13 Selegiline Phase 2nd Day After Cocaine) it was 1.07 ± 0.40 mg; in data set [6] (Day 13–14 Selegiline Phase 3rd Day After Cocaine, no patch applied at 9 AM on Day 14), 1.01 ± 0.33 mg. Also, the results for the “Excreted in the 24 Hour Urine” value in data set [2] (setting [10]), in data set [2] (setting [11]) and in data set [2] (setting [12]) were 0.109 ± 0.073, 0.145 ± 0.138 and 0.063 ± 0.097, respectively. The “Effect of selegiline on cocaine-induced physiological effects” value in data set [7] was “Neither peak effects (Table 3) nor physiological effects across time were affected”.
Take `C#CCNC(C)Cc1ccccc1` (centres unmarked) [Desmethylselegiline, n-desmethylselegiline]: the “Excreted in the 24 Hour Urine” value was 0.184 ± 0.128 in data set [2] (setting [10]), 0.188 ± 0.162 in data set [2] (setting [11]) and 0.082 ± 0.086 in data set [2] (setting [12]).
